Test results as given in patent US6251943A, “Method of treating or preventing septic shock by administering a MEK inhibitor” (Warner-Lambert Company, priority 1999, dated 2001).

What was measured:
MEK = MEK (Homo sapiens, UniProt Q02750); test: In vitro MEK inhibition (cascade assay for inhibitors of the MAP kinase pathway / in vitro MEK assay); format: biochemical
Method: Incorporation of ^32 P into myelin basic protein (MBP) was assayed in the presence of a glutathione S-transferase fusion protein containing p44MAP kinase (GST-MAPK) and a glutathione S-transferase fusion protein containing p45MEK (GST-MEK). The assay solution contained 20 mM HEPES, pH 7.4, 10 MM MgCl2, 1 mM MnCl2, 1 mM EGTA, 50 μM [γ-^32 P]ATP, 10 μg GST-MEK, 0.5 μg GST-MAPK and 40 μg MBP in a final volume of 100 μL. […] Compounds were assessed at 10 μM for ability to inhibit incorporation of ^32 P.
To ascertain whether compounds were inhibiting GST-MEK or GST MAPK, two additional protocols were employed. In the first protocol, compounds were added to tubes containing GST-MEK, followed by addition of GST-MAPK, MBP and [γ-^32 P]ATP. In the second protocol, compounds were added to tubes containing both GST-MEK and GST-MAPK, followed by MBP and [γ-^32 P]ATP.
For evaluation of direct MEK activity, 10 μg GST-MEK1 was incubated with 5 μg of a glutathione S-transferase fusion protein containing p44MAP kinase with a lysine to alanine mutation at position 71 (GST-MAPK-KA). This mutation eliminates kinase activity of MAPK, so only kinase activity attributed to the added MEK remains. Incubations were 15 minutes at 30° C in a final volume of 50 μL containing 50 mM Tris (pH 7.5), […], […], and 10 μM [γ-^32 P]ATP. The reaction was stopped by addition of Laenunli SDS sample buffer and phosphorylated GST-MAPK-KA was resolved by electrophoresis on a 10% polyacrylamide gel. Radioactivity incorporated into GST-MAPK-KA was determined by autoradiography, and subsequently by excision of the bands followed by scintillation counting. […] When these sites are phosphorylated, MEK activity is increased. Phosphorylation of these sites can be mimicked by mutation of the serine residues to glutamate. For this assay, 5 μg GST-MEK-2E was incubated with 5 μg GST-MAPK-KA for 15 minutes at 30° C. in the same reaction buffer as described above. Reactions were terminated and analyzed as above.

MAP kinase = test: "In Vivo" activity (whole cell MAP kinase assay); format: cell-based; details: Table 2
Method: To determine if compounds were able to block activation of MAP kinase in whole cells, the following protocol was used: Cells were plated in multi-well plates and grown to confluence. Cells were then serum-deprived overnight. Cells were exposed to the desired concentrations of compound or vehicle (DMSO) for 30 minutes, followed by addition of a growth factor, for example, PDGF (100 ng/mL). After a 5-minute treatment with the growth factor, cells were washed with PBS, then lysed in a buffer consisting of 70 mM NaCl, 10 mM HEPES (pH 7.4), 50 mM glycerol phosphate, and 1% Triton X-100. Lysates were clarified by centrifugation at 13,000×g for 10 minutes. Five micrograms of the resulting supernatants were incubated with […] microtubule associated protein-2 (Map2) for 15 minutes at 30° C. in a final volume of 25 μL containing 50 mM Tris (pH 7.4), 10 mM MgCl2, 2 mM EGTA and 30 μM [γ-^32 P]ATP. Reactions were terminated by addition of Laemmli sample buffer. Phosphorylated Map2 was resolved on 7.5% acrylamide gels and incorporated radioactivity determined by autoradiography and subsequent excision of the bands followed by scintillation counting.
The in vitro and in vivo biological activity of several representative compounds of Formula I and II in the foregoing assays is presented in Tables 1 and 2.

Sequence of MEK (Q02750 whole entry, the tested form may be a part): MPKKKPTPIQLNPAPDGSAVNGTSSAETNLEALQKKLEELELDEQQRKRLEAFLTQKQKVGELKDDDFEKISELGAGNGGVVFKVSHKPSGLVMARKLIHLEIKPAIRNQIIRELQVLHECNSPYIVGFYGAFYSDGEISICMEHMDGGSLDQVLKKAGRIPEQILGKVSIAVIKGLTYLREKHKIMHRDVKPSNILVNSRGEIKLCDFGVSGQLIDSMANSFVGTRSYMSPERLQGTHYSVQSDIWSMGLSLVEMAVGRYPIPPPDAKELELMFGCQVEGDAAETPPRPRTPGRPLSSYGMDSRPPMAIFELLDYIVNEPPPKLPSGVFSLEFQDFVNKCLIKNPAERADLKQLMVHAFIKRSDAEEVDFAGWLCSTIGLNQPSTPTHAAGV

Row | SMILES | IC50 (MEK; Table 1) [nM] | IC50 (MEK; Table 2) [nM] | IC50 (MAP kinase) [nM]
1 | Cc1cc(I)ccc1Nc1ccc([N+](=O)[O-])cc1C(=O)NCCO [Example 195, N-(2-Hydroxy-ethyl)-2-(4-iodo-2-methyl-phenylamino)-5-nitro-benzamide] | 12800 | – | –
2 | CCN(CC)C(=O)c1ccc(F)cc1Nc1ccc(I)cc1C [Example 43, N,N-Diethyl-4-fluoro-2-(4-iodo-2-methyl-phenylamino)-benzamide] | > 1000 | – | –
3 | Cc1cc(I)ccc1Nc1cc(F)ccc1C(=O)NOCc1ccccc1 [Example 77a, 4-Fluoro-2-(4-iodo-2-methyl-phenylamino)-N-phenylmethoxy-benzamide] | – | 280 | –
4 | Cc1cc(Br)ccc1Nc1cc(F)ccc1C(=O)NO [Example 3a, 2-(4-bromo-2-methyl-phenylamino)-4-fluoro-N-hydroxy-benzamide] | – | 72 | 3000
5 | CCONC(=O)c1ccc(F)c(F)c1Nc1ccc(I)cc1C [Example 40a, N-Ethoxy-3,4-difluoro-2-(4-iodo-2-methyl-phenylamino)-benzamide] | – | – | 125
6 | Cc1cc(F)ccc1Nc1cc(F)ccc1C(=O)NO [Example 8a, 4-Fluoro-N-hydroxy-2-(4-fluoro-2-methyl-phenylamino)-benzamide] | – | – | 3000
7 | Cc1cc(I)ccc1Nc1c(C(=O)NOCC#Cc2cccc(F)c2)ccc(F)c1F [Example 34a, 3,4-Difluoro-N-[3-(3-fluoro-phenyl)-prop-2-ynyloxy]-2-(4-iodo-2-methyl-phenylamino)-benzamide] | – | – | 1500
8 | Cc1cc(I)ccc1Nc1ccc(Cl)cc1C(=O)NO [Example 4a, 5-Chloro-N-hydroxy-2-(4-iodo-2-methyl-phenylamino)-benzamide] | – | – | 1000
9 | Cc1cc(I)ccc1Nc1c(C(=O)NOCC2CC2)cc(Br)c(F)c1F [Example 58a, 5-Bromo-N-cyclopropylmethoxy-3,4-difluoro-2-(4-iodo-2-methyl-phenylamino)] | – | 18 | 14
10 | Cc1cc(I)ccc1Nc1cc(F)ccc1C(=O)NO [Example 1a, 4-Fluoro-N-hydroxy-2-(4-iodo-2-methyl-phenylamino)-benzamide] | – | – | 50
11 | Cc1cc(I)ccc1Nc1cc(F)ccc1C(=O)NOCc1ccoc1 [Example 20a, 4-Fluoro-N-(furan-3-ylmethoxy)-2-(4-iodo-2-methyl-phenylamino)-benzamide] | – | – | 170
12 | C#CCCONC(=O)c1ccc(F)c(F)c1Nc1ccc(I)cc1C [Example 29a, N-(But-3-ynyloxy)-3,4-difluoro-2-(4-iodo-2-methyl-phenylamino)-benzamide] | – | – | 730
13 | Cc1cc(I)ccc1Nc1cc([N+](=O)[O-])ccc1C(=O)O [Example 30, 2-(4-Iodo-2-methyl-phenylamino)-4-nitro-benzoic acid] | 105000 | – | –
14 | Cc1cc(Cl)ccc1Nc1cc(F)ccc1C(=O)NO [Example 11a, 4-Fluoro-N-hydroxy-2-(4-cluoro-2-methyl-phenylamino)-benzamide] | – | 334 | 500
15 | CONC(=O)c1ccc(F)c(F)c1Nc1ccc(I)cc1C [Example 14a, 3,4-Difluoro-2-(4-iodo-2-methyl-phenylamino)-N-N-methoxy-benzamide] | – | – | > 2000
16 | CONC(=O)c1cc(Cl)ccc1Nc1ccc(I)cc1C [Example 7a, 5-Chloro-2-(4-iodo-2-methyl-phenylamino)-N-methoxybenzamide] | – | – | < 30000
17 | Cc1cc(I)ccc1Nc1c(C(=O)NOC(C)C)ccc(F)c1F [Example 47a, 3,4-Difluoro-2-(4-iodo-2-methyl-phenylamino)-N-isopropoxy-benzamide] | – | – | 130
18 | Cc1cc(I)ccc1Nc1ccc(Cl)cc1C(=O)NOC1CCCCO1 (stereo not shown) [Example 6a, 5-Chloro-2-(4-iodo-2-methyl-phenylamino)-N-(terahydropyran-2-yloxy)benzamide] | – | – | ~30000
19 | Cc1cc(I)ccc1Nc1ccc(Cl)cc1C(=O)N(C)O [Example 5a, 5-Chloro-N-hydroxy-2-(4-iodo-2-methyl-phenylamino)-N-methyl-benzamide] | – | – | ~30000
20 | CC=CCONC(=O)c1cc(Br)c(F)c(F)c1Nc1ccc(I)cc1C [Example 24a, 5-Bromo-N-(but-2-enyloxy)-3,4-difluoro-2-(4-iodo-2-methyl-phenylamino)-benzamide] | – | – | 120
21 | Cc1cc(I)ccc1Nc1c(C(=O)NOC2CCC2)ccc(F)c1F [Example 50a, N-Cyclobutyloxy-3,4-difluoro-2-(4-iodo-2-methyl-phenylamino)-benzamide] | – | – | 220
22 | Cc1cc(I)ccc1Nc1ccc(F)cc1C(=O)NOCc1ccccc1 [Example 186, N-Benzyloxy-5-fluoro-2-(4-iodo-2-methyl-phenylamino)-benzamide] | 555 | – | –
23 | CCCONC(=O)c1ccc(F)c(F)c1Nc1ccc(I)cc1C [Example 43a, 3,4-Difluoro-2-(4-iodo-2-methyl-phenylamino)-N-propoxy-benzamide] | – | – | 100
24 | Cc1cc(I)ccc1Nc1c(C(=O)NO)cc(Br)c(F)c1F [Example 2a, 5-Bromo-3,4-difluoro-N-hydroxy-2-(4-iodo-2-methyl-phenylamino)-benzamide] | – | – | 30
25 | C#CCONC(=O)c1ccc(F)c(F)c1Nc1ccc(I)cc1C [Example 71a, 3,4-Difluoro-2-(4-iodo-2-methyl-phenylamino)-N-(prop-2-ynyloxy)-benzamide] | – | – | 390
26 | Cc1ccccc1Nc1cc(F)ccc1C(=O)NO [Example 9a, 4-Fluoro-N-hydroxy-2-(2-methylphenylamino)-benzamide] | – | – | 1000
27 | Cc1cc(I)ccc1Nc1c(C(=O)NOCC#Cc2ccccc2F)ccc(F)c1F [Example 36a, 3,4-Difluoro-N-[3-(2-fluoro-phenyl)-prop-2-ynyloxy]-2-(4-iodo-2-methyl-phenylamino)-benzamide] | – | – | 70
28 | C=C(C)CONC(=O)c1ccc(F)c(F)c1Nc1ccc(I)cc1C [Example 66a, 3,4-Difluoro-2-(4-iodo-2-methyl-phenylamino)-N-(2-methyl-allyloxy)-benzamide] | – | – | 130
